Assay results: the supplement of paper PMC10307832

Compound: CN(C)C[C@@H]1CCn2cc(c3ccccc32)C2=C(C(=O)NC2=O)c2cn(c3ccccc23)CCO1 [Ruboxistaurin]
Assay: relative viability (nuclei count vs DMSO), 5 days (fraction); higher = more cells survive
How it was run: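 In 1536-well plates, lung cancer cell lines rested overnight at 37 °C before five library-drug doses (not always all listed), √10 apart, were pinned onto vehicle-anchored plates. Nuclei were counted with MetaXpress from 4× Hoechst images taken after 5 days without medium change. Viability compares treated-well with vehicle-well nuclei as a median over plates, and plates needed control CV below 25% plus at least one doubling to pass.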

## NCI-H661
0.08 µM
  relative viability: 1.03
0.8 µM
  relative viability: 0.962
2.53 µM
  relative viability: 1.05
8 µM
  relative viability: 1.04

## NCI-H727
0.08 µM
  relative viability: 0.952
0.8 µM
  relative viability: 0.7
2.53 µM
  relative viability: 0.969
8 µM
  relative viability: 0.808

## NCI-H838
0.08 µM
  relative viability: 1.03
0.8 µM
  relative viability: 0.839
2.53 µM
  relative viability: 0.964
8 µM
  relative viability: 0.923

## NCI-H1355
0.08 µM
  relative viability: 1.05
0.8 µM
  relative viability: 0.882
2.53 µM
  relative viability: 0.971
8 µM
  relative viability: 0.944

## NCI-H1395
0.08 µM
  relative viability: 1.05
0.8 µM
  relative viability: 0.844
2.53 µM
  relative viability: 1.01
8 µM
  relative viability: 0.882

## NCI-H1437
0.08 µM
  relative viability: 1
0.8 µM
  relative viability: 0.914
2.53 µM
  relative viability: 0.993
8 µM
  relative viability: 1.07

## NCI-H1563
0.08 µM
  relative viability: 1
0.8 µM
  relative viability: 0.947
2.53 µM
  relative viability: 1.07
8 µM
  relative viability: 0.886

## NCI-H1650
0.08 µM
  relative viability: 1.24
0.8 µM
  relative viability: 0.742
2.53 µM
  relative viability: 1.08
8 µM
  relative viability: 0.886

## NCI-H1651
0.08 µM
  relative viability: 1.02
0.8 µM
  relative viability: 0.983
2.53 µM
  relative viability: 1
8 µM
  relative viability: 1.03

## NCI-H1666
0.08 µM
  relative viability: 1.09
0.8 µM
  relative viability: 1.02
2.53 µM
  relative viability: 1.04
8 µM
  relative viability: 0.968

## NCI-H1703
0.08 µM
  relative viability: 1.19
0.8 µM
  relative viability: 0.697
2.53 µM
  relative viability: 0.876
8 µM
  relative viability: 0.724

## NCI-H1734
0.08 µM
  relative viability: 0.989
0.8 µM
  relative viability: 0.832
2.53 µM
  relative viability: 1.04
8 µM
  relative viability: 0.816

## NCI-H1755
0.08 µM
  relative viability: 1.01
0.8 µM
  relative viability: 1.01
2.53 µM
  relative viability: 0.974
8 µM
  relative viability: 1.03

## NCI-H1792
0.08 µM
  relative viability: 1.09
0.8 µM
  relative viability: 0.78
2.53 µM
  relative viability: 0.938
8 µM
  relative viability: 0.796

## NCI-H1793
0.08 µM
  relative viability: 1.05
0.8 µM
  relative viability: 0.749
2.53 µM
  relative viability: 1.27
8 µM
  relative viability: 1.08

## NCI-H1915
0.08 µM
  relative viability: 0.984
0.8 µM
  relative viability: 0.958
2.53 µM
  relative viability: 0.998
8 µM
  relative viability: 0.962

## NCI-H1944
0.08 µM
  relative viability: 0.958
0.8 µM
  relative viability: 0.897
2.53 µM
  relative viability: 0.932
8 µM
  relative viability: 0.819

## NCI-H1975
0.08 µM
  relative viability: 0.945
0.8 µM
  relative viability: 0.834
2.53 µM
  relative viability: 1.02
8 µM
  relative viability: 0.927

## NCI-H1993
0.08 µM
  relative viability: 1.18
0.8 µM
  relative viability: 0.756
2.53 µM
  relative viability: 0.908
8 µM
  relative viability: 0.696

## NCI-H2009
0.08 µM
  relative viability: 1.04
0.8 µM
  relative viability: 0.946
2.53 µM
  relative viability: 1.06
8 µM
  relative viability: 1.19

## NCI-H2023
0.08 µM
  relative viability: 1.02
0.8 µM
  relative viability: 0.788
2.53 µM
  relative viability: 1.08
8 µM
  relative viability: 0.735

## NCI-H2085
0.08 µM
  relative viability: 1.02
0.8 µM
  relative viability: 0.942
2.53 µM
  relative viability: 1.07
8 µM
  relative viability: 1.04

## NCI-H2087
0.08 µM
  relative viability: 1.17
0.8 µM
  relative viability: 0.976
2.53 µM
  relative viability: 1.05
8 µM
  relative viability: 1.06

## NCI-H2126
0.08 µM
  relative viability: 1
0.8 µM
  relative viability: 0.898
2.53 µM
  relative viability: 1.04
8 µM
  relative viability: 0.934

## NCI-H2170
0.08 µM
  relative viability: 0.994
0.8 µM
  relative viability: 0.875
2.53 µM
  relative viability: 1.06
8 µM
  relative viability: 0.953

## NCI-H2228
0.08 µM
  relative viability: 0.94
0.8 µM
  relative viability: 0.89
2.53 µM
  relative viability: 1.01
8 µM
  relative viability: 0.93

## NCI-H2342
0.08 µM
  relative viability: 1.02
0.8 µM
  relative viability: 0.915
2.53 µM
  relative viability: 1.06
8 µM
  relative viability: 1.04

## NCI-H2347
0.08 µM
  relative viability: 1.07
0.8 µM
  relative viability: 0.976
2.53 µM
  relative viability: 1.08
8 µM
  relative viability: 1.08

## NCI-H2405
0.08 µM
  relative viability: 1.17
0.8 µM
  relative viability: 0.97
2.53 µM
  relative viability: 1.01
8 µM
  relative viability: 1.01

## NCI-H3122
0.08 µM
  relative viability: 0.98
0.8 µM
  relative viability: 0.963
2.53 µM
  relative viability: 1.01
8 µM
  relative viability: 1.07

## PC-3 [JPC-3]
0.08 µM
  relative viability: 1.12
0.8 µM
  relative viability: 0.97
2.53 µM
  relative viability: 1.11
8 µM
  relative viability: 1.09

## PC-14
0.08 µM
  relative viability: 1.17
0.8 µM
  relative viability: 0.924
2.53 µM
  relative viability: 1.01
8 µM
  relative viability: 0.989

## RERF-LC-KJ
0.08 µM
  relative viability: 1.04
0.8 µM
  relative viability: 0.903
2.53 µM
  relative viability: 0.995
8 µM
  relative viability: 0.959

## SK-LU-1
0.08 µM
  relative viability: 1.22
0.8 µM
  relative viability: 0.969
2.53 µM
  relative viability: 1.03
8 µM
  relative viability: 1.08

## SK-MES-1
0.08 µM
  relative viability: 1.07
0.8 µM
  relative viability: 0.91
2.53 µM
  relative viability: 1.02
8 µM
  relative viability: 0.898

## SW 900
0.08 µM
  relative viability: 0.897
0.8 µM
  relative viability: 0.897
2.53 µM
  relative viability: 1.14
8 µM
  relative viability: 0.958

## SW 1573
0.08 µM
  relative viability: 1.16
0.8 µM
  relative viability: 0.871
2.53 µM
  relative viability: 1.02
8 µM
  relative viability: 0.907

## UMC-11
0.08 µM
  relative viability: 0.964
0.8 µM
  relative viability: 0.914
2.53 µM
  relative viability: 0.974
8 µM
  relative viability: 0.762
